Test results: PubChem BioAssay (NCI)
Several values for one entry are separate records, joined by “and”; a condition that tells them apart may be missing. Equal entries are not always repeated.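 A five-concentration, 48-hour dose response in 96-well plates underlies each endpoint, interpolated linearly between surrounding concentrations. At the GI50, growth is halved. The concentration for full growth arrest is given as TGI.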

Columns and labels:
Experiment in all cases: NCI-60 cell line screen, 48 h
KM12 colon = tested on: KM12 colon
IGROV1 ovarian = tested on: IGROV1 ovarian
SF-268 CNS = tested on: SF-268 CNS
UO-31 renal = tested on: UO-31 renal
OVCAR-5 ovarian = tested on: OVCAR-5 ovarian
MOLT-4 leukemia = tested on: MOLT-4 leukemia
OVCAR-4 ovarian = tested on: OVCAR-4 ovarian
SK-OV-3 ovarian = tested on: SK-OV-3 ovarian
HS 578T breast = tested on: HS 578T breast
MDA-MB-231 breast = tested on: MDA-MB-231 breast

SMILES	TGI (KM12 colon)	TGI (IGROV1 ovarian)	TGI (SF-268 CNS)	TGI (UO-31 renal)	TGI (OVCAR-5 ovarian)	TGI (MOLT-4 leukemia)	TGI (OVCAR-4 ovarian) [µM]	TGI (SK-OV-3 ovarian)	GI50 (KM12 colon) [nM]	GI50 (IGROV1 ovarian) [nM]	GI50 (HS 578T breast) [nM]	TGI (HS 578T breast) [µM]	GI50 (SF-268 CNS) [µM]	GI50 (UO-31 renal) [µM]	GI50 (OVCAR-5 ovarian) [nM]	GI50 (MOLT-4 leukemia)	GI50 (MDA-MB-231 breast) [µM]	TGI (MDA-MB-231 breast) [µM]	GI50 (OVCAR-4 ovarian) [nM]	GI50 (SK-OV-3 ovarian) [µM]
CC(/C=C/C(=O)c1sc(C(N)=S)nc1C)=C\c1ccccc1	> 100 µM	> 100 µM	> 100 µM	> 100 µM	> 100 µM	> 100 µM	> 100	> 100 µM	–	–	–	–	–	–	–	–	–	–	–	–
CN1CCN(Cc2ccc(NC(=O)c3[nH]ncc3Nc3ncnc4[nH]ccc34)cc2)CC1	10.9 µM	10.7 µM	1.42 µM	4.57 µM	17.4 µM	0.598 µM	0.68	–	347	436	197	0.98	0.374	0.82	456	142 nM	0.371	0.941	215	–
Cc1ccc2oc(=O)c3c(O)c4cccc(OC5OC(C)C6O[C@@H](c7ccccc7)OC6C5OC5OC(C)C(O)C(O)C5O)c4c4oc(=O)c1c2c34 (some centres not stated)	1.43 µM and 1.92 µM	1.39 µM and 1.32 µM	1.59 µM and 1.71 µM	1.99 µM and 7.47 µM	1.13 µM and 2.7 µM	0.109 µM and 0.161 µM	3.53	0.967 µM and 2.41 µM	48.6	31.5	–	1.97	–	0.4	218	4.36 nM and 13.7 nM	–	1.35	–	0.371
CC1=NN(c2ccccc2)C(=O)C12[C@H](c1ccccc1)C2(C#N)C#N (some centres not stated)	25.1 µM	28.1 µM	20.6 µM	27.9 µM	24.2 µM	3.1 µM	17.5	32.7 µM	–	–	–	–	–	–	–	–	–	–	–	–
CN1CCN=C1c1nnn(-c2ccc([N+](=O)[O-])cc2)c1-c1ccccc1	> 100 µM	> 100 µM	> 100 µM	> 100 µM	> 100 µM	> 100 µM	> 100	> 100 µM	–	–	–	–	–	–	–	–	–	–	–	–
Cc1ccccc1-n1c(=S)[nH]c2c(sc(=O)n2-c2ccccc2C)c1=O	> 100 µM	> 100 µM	> 100 µM	> 100 µM	> 100 µM	> 100 µM	> 100	> 100 µM	–	–	–	–	–	–	–	–	–	–	–	–
COc1ccc(NC(=O)CC(=O)N/N=C(\C)c2cc3ccccc3oc2=O)cc1	> 100 µM	> 100 µM	–	> 100 µM	–	> 100 µM	–	> 100 µM	–	–	–	–	–	–	–	–	–	–	–	–
COc1ccc(Br)c(CN2CCc3ccccc32)c1OS(=O)(=O)c1ccc(C)cc1	> 100 µM	–	> 100 µM	> 100 µM	> 100 µM	> 100 µM	–	–	–	–	–	–	–	–	–	–	–	–	–	–
O=C1OC(=O)C23CSCC12C1C=CC3O1 (configuration not stated)	> 100 µM	> 100 µM	> 100 µM	> 100 µM	> 100 µM	> 100 µM	–	> 100 µM	–	–	–	–	–	–	–	–	–	–	–	–
CC12OC(C(=O)C13CC3)C1C(=O)c3c(O)ccc(O)c3C(=O)C12 (configuration not stated)	90.1 µM	29.7 µM	45.8 µM	55.6 µM	43.8 µM	10.2 µM	–	78 µM	23500	13400	16300	46.2	15.1	22.8	19400	2350 nM	24.6	46.6	–	24.6
COc1cc(OC)c2c(=O)cc(-c3ccccc3OCc3ccccc3)oc2c1OC	16.2 µM	–	73.7 µM	> 100 µM	84.3 µM	–	> 100	> 100 µM	3250	–	–	–	18.7	> 100	18000	–	5.6	71.8	6320	98
COc1ccc(N2C(=O)[C@@H](N=[N+]=[N-])[C@@H]2[C@H]2COC(C)(C)O2)cc1	> 100 µM	> 100 µM	> 100 µM	> 100 µM	> 100 µM	> 100 µM	> 100	> 100 µM	–	–	–	–	–	–	–	–	–	–	–	–
CS(=O)(=O)c1ccc(COP(N)(=O)N(CCCl)CCCl)cc1 (configuration not stated)	> 100 µM	> 100 µM	> 100 µM	> 100 µM	> 100 µM	> 100 µM	> 100	> 100 µM	–	–	–	–	–	–	–	–	–	–	–	–
COc1cc(Cc2c(C)cc(OC)c3[nH]c4ccccc4c23)cc2c1[nH]c1ccccc12	15 µM	> 25 µM	24.9 µM	18.6 µM	12.5 µM	> 25 µM	–	> 25 µM	5430	9030	–	–	6.97	6.05	–	5690 nM	–	–	–	8.8
CCC(C)(O)c1cn(-c2ccc(Cl)cc2)nn1 (configuration not stated)	> 100 µM	> 100 µM	> 100 µM	> 100 µM	> 100 µM	> 100 µM	> 100	> 100 µM	–	–	–	–	–	–	–	–	–	–	–	–
CCCCNS(=O)(=O)c1ccc(-c2ccc3c(c2)-c2ccc(S(=O)(=O)NCCCC)cc2S3(=O)=O)cc1	> 100 µM	> 100 µM	31.3 µM	> 100 µM	> 100 µM	> 100 µM	15.4	45.5 µM	–	–	–	–	–	–	–	–	–	–	–	–
CC(=O)OCC1OC(n2c(=O)[nH]c(=O)c3n[nH]nc32)C(OC(C)=O)C(OC(C)=O)C1OC(C)=O (configuration not stated)	–	> 100 µM	> 100 µM	> 100 µM	> 100 µM	> 100 µM	> 100	> 100 µM	–	–	–	–	–	–	–	–	–	–	–	–
CC(C)=Cc1cc(CCC/C(C)=C/Cc2c(O)cc(C)c(C(=O)O)c2O)co1	> 100 µM	> 100 µM	> 100 µM	> 100 µM	> 100 µM	–	> 100	–	–	–	–	> 100	–	–	–	–	–	> 100	–	–
O=C1CC(c2cccc(Cl)c2)Oc2ccccc21 (configuration not stated)	39.5 µM	50.7 µM	50.6 µM	27.6 µM	–	–	94.1	46 µM	–	–	–	61.8	–	–	–	–	–	> 100	–	–
CCOC(=O)c1c(-c2ccccc2)[n+](=O)c2cc(F)c(F)cc2n1[O-]	9.91 µM	> 100 µM	4.07 µM	–	4.13 µM	> 100 µM	2.16	3.57 µM	2010	701	2380	6.26	1.66	–	2230	415 nM	–	–	624	2.03
Cc1cc(=O)[nH]c(NNC(C#N)c2ccccc2O)n1 (configuration not stated)	> 100 µM	> 100 µM	> 100 µM	56.8 µM	> 100 µM	> 100 µM	> 100	> 100 µM	–	–	–	–	–	–	–	–	–	–	–	–
